Results on 2 compounds are retold here after publication PMC4475277 (Chemistry & biology, 2015).

For one test, the target named is T1, bsNOS (WT) (Bacillus subtilis, UniProt O34453).
T1 sequence (O34453 1-363): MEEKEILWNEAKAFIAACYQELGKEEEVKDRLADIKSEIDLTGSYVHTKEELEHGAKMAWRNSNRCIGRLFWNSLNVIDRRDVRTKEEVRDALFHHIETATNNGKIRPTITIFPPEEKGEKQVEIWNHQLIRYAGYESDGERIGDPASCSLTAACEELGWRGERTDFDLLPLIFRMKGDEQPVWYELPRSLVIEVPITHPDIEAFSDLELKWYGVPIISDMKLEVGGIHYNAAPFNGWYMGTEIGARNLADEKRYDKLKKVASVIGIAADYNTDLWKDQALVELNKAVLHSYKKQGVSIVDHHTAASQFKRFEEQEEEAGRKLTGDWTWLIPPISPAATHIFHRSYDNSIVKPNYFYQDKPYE
The conditions noted are these: read-out: WT - KS; imidazole displacement; ref Wang et al., 2004; cited from earlier work.

Another test addresses I218V bsNOS (Bacillus subtilis, UniProt O34453, I218V). The conditions noted are these: read-out: I218V - KS; imidazole displacement; ref Wang et al., 2004; cited from earlier work.
The subject of test [1] is bBiDomain (a chimera of bsNOS and redox partner YkuN). Description: bBiDomain single time point bacterial NOS activity inhibition. As to conditions: inhibitor 30 µM, NOHA 200 µM, 4 min at 35 °C. It is filed as biochemical, Bacillus subtilis.

Chain of I218V bsNOS (O34453 whole entry I218V): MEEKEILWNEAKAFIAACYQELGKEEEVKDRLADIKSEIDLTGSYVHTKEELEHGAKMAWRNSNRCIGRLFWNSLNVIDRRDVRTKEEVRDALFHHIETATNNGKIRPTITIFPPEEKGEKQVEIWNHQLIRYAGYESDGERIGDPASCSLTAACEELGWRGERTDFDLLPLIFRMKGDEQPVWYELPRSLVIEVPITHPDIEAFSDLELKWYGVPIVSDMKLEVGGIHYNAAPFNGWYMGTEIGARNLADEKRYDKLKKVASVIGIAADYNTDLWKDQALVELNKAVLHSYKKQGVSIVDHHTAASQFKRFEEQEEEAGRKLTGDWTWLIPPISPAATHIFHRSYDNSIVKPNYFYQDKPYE

Take `N=C(N)NCCC[C@H](N)C(=O)O` [L-Arg]: the figures for the Kd at bsNOS (WT) and on I218V bsNOS were 4.8 ± 0.1 µM and 2 ± 0.2 µM, respectively.
`NC(=NCCC[C@H](N)C(=O)O)N[N+](=O)[O-]` [L-NNA]: the “% nitrite (nitrite with inhibitor divided by nitrite without inhibitor)” value in test [1] is 40.9 ± 5.3 % nitrite.
